Data: PMC11314561, “Design and Synthesis of Novel Aminoindazole-pyrrolo[2,3-b]pyridine Inhibitors of IKKα That Selectively Perturb Cellular Non-Canonical NF-κB Signalling” (Molecules, 2024)

Columns and labels:
Assay in all cases: kinase panel
Assay type in all cases: biochemical
LIMK1(h) = LIMK1(h) (Homo sapiens, UniProt P53667)
Method in brief: (§1)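 Values are percent inhibition from kinome-wide profiling of three series compounds across 231 kinases, with a structurally similar analogue tested on only 98 selected kinases.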

Fes(h) = Fes(h) (Homo sapiens, UniProt P07332)
Method in brief: as §1

CaMKIIδ(h) = CaMKIIδ(h) (Homo sapiens, UniProt Q13557)
Method in brief: as §1

MAPKAP-K2(h) = MAPKAP-K2(h) (Homo sapiens, UniProt P49137)
Method in brief: as §1

PAK2(h) = PAK2(h) (Homo sapiens, UniProt Q13177)
Method in brief: as §1

JAK3(h) = biological target: T1, JAK3(h) (Homo sapiens, UniProt P52333)
T1 sequence (P52333 1-1124): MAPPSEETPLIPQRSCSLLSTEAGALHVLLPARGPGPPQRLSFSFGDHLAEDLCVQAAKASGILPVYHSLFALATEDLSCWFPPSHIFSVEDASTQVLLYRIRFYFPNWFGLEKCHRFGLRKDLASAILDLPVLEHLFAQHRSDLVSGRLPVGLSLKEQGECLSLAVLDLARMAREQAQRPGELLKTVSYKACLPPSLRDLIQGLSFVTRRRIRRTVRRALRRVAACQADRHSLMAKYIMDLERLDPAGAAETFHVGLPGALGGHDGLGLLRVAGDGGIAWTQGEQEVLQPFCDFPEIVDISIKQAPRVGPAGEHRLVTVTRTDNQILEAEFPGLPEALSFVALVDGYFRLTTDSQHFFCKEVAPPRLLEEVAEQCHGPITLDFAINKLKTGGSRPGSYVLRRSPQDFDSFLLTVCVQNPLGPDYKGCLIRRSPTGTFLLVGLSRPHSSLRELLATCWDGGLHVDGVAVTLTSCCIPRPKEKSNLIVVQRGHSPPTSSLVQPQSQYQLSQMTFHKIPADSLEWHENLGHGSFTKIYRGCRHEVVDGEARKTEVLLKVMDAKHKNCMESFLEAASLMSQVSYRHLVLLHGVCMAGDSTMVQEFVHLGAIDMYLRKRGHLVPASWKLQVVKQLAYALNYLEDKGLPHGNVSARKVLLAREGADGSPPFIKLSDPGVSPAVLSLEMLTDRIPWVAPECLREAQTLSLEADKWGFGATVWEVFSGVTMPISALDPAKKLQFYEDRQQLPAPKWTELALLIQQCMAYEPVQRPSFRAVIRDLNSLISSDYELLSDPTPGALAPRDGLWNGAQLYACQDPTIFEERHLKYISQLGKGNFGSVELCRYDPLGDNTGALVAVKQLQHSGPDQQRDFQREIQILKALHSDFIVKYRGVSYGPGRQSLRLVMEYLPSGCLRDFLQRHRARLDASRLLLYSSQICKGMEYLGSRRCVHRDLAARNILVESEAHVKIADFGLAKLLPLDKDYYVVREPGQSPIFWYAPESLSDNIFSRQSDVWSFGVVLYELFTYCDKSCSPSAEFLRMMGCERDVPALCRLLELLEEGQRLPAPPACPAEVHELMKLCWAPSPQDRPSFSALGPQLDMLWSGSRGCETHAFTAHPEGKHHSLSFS
Method in brief: as §1

HIPK1(h) = HIPK1(h) (Homo sapiens, UniProt Q86Z02)
Method in brief: as §1

CaMKIV(h) = biological target: T2, CaMKIV(h) (Homo sapiens, UniProt Q16566)
T2 sequence (Q16566 1-473): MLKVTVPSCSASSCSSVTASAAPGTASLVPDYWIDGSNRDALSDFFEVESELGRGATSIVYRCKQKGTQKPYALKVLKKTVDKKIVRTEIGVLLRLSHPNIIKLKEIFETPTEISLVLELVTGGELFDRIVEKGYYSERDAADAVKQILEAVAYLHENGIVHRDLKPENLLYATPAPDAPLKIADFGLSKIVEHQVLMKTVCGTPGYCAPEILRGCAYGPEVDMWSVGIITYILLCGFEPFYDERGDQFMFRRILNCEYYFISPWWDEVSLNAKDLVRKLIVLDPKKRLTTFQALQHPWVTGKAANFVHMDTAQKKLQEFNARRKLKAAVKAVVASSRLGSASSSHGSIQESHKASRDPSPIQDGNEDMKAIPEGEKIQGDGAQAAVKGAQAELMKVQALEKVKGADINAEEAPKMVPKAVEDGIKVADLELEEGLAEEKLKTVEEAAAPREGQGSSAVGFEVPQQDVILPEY
Method in brief: as §1

CDK2/cyclinA(h) = CDK2/cyclinA(h) (Homo sapiens, UniProt P24941)
Method in brief: as §1

CDK2/cyclinE(h) = CDK2/cyclinE(h) (Homo sapiens, UniProt P24941)
Method in brief: as §1

Sequence of CaMKIIδ(h) (Q13557 whole entry): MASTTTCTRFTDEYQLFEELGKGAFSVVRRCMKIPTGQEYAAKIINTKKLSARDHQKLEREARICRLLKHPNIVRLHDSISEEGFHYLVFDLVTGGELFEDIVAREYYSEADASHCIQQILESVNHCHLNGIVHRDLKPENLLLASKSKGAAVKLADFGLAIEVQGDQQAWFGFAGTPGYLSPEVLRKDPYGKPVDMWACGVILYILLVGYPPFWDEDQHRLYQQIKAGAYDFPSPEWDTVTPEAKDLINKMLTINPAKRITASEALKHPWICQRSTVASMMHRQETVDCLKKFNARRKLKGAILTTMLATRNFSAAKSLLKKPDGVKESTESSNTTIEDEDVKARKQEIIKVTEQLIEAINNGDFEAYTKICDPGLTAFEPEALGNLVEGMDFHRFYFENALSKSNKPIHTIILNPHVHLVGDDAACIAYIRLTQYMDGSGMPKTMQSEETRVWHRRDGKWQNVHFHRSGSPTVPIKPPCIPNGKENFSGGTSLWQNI
Sequence of HIPK1(h) (Q86Z02 whole entry): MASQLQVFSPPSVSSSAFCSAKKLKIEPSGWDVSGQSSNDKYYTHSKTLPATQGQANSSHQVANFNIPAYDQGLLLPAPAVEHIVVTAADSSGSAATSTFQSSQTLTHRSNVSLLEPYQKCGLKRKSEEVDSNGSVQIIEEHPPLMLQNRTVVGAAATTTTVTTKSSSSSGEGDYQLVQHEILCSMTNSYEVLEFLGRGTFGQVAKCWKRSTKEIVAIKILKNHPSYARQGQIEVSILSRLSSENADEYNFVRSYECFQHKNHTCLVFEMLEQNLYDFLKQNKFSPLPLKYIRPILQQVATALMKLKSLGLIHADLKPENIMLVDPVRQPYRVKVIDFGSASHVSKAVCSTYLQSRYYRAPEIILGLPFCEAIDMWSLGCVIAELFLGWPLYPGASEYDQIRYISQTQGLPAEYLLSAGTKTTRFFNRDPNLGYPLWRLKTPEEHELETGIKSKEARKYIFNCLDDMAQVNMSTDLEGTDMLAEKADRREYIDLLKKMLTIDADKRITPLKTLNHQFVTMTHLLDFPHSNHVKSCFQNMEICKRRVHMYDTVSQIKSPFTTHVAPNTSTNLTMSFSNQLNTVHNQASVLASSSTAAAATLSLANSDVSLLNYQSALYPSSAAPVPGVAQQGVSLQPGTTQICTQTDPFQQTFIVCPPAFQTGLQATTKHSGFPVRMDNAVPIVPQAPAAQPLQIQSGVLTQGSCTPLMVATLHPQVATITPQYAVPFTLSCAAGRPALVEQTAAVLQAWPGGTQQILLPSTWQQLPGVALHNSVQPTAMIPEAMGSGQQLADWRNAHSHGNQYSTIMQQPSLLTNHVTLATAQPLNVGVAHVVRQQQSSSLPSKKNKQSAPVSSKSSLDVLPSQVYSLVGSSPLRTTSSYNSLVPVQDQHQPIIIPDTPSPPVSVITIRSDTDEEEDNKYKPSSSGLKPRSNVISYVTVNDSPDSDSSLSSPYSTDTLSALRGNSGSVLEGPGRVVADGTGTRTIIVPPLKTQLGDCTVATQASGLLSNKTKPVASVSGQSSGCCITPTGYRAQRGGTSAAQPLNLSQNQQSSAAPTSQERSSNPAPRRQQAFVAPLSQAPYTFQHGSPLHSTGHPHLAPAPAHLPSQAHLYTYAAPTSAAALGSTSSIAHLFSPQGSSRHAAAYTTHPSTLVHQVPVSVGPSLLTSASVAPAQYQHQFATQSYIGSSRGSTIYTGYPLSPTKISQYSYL
Sequence of PAK2(h) (Q13177 whole entry): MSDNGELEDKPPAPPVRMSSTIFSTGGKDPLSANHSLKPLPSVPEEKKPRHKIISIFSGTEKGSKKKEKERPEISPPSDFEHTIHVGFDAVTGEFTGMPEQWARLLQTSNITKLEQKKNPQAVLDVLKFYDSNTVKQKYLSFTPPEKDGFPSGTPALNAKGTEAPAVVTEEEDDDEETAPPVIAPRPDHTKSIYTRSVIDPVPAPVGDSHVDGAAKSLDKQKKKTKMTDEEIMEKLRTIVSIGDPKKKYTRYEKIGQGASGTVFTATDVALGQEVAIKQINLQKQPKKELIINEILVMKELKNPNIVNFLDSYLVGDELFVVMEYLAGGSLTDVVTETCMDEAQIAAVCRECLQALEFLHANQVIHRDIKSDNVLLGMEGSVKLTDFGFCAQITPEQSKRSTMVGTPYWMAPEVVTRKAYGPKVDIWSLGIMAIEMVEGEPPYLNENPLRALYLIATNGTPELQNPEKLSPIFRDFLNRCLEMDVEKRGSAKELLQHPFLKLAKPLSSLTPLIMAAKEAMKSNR
Sequence of MAPKAP-K2(h) (P49137 whole entry): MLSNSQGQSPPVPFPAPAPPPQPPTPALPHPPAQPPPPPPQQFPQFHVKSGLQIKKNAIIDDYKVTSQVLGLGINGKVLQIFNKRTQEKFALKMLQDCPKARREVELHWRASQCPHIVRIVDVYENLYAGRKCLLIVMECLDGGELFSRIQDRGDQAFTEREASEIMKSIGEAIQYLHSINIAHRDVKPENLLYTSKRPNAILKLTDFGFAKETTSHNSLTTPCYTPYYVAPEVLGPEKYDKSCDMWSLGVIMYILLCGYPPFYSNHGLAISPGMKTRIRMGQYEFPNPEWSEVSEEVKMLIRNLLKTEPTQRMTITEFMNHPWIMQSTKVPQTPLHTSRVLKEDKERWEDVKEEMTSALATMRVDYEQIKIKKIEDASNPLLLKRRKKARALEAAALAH
Sequence of LIMK1(h) (P53667 whole entry): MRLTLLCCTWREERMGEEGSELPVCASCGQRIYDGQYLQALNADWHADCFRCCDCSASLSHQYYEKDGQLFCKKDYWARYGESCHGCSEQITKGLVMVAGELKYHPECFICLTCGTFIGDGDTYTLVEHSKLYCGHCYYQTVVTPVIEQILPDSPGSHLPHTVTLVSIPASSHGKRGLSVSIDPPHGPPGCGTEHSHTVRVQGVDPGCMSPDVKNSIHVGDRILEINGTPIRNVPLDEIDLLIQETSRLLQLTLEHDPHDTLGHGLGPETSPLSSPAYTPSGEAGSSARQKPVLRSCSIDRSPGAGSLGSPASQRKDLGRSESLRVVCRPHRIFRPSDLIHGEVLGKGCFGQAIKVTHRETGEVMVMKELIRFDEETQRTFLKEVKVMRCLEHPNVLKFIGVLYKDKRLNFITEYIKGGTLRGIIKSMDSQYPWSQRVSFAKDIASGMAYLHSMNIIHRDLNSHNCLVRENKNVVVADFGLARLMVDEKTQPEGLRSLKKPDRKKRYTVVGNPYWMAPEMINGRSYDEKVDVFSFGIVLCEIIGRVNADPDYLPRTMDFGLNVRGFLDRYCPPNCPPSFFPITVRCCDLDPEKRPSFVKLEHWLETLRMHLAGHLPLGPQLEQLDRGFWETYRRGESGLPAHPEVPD
Sequence of Fes(h) (P07332 whole entry): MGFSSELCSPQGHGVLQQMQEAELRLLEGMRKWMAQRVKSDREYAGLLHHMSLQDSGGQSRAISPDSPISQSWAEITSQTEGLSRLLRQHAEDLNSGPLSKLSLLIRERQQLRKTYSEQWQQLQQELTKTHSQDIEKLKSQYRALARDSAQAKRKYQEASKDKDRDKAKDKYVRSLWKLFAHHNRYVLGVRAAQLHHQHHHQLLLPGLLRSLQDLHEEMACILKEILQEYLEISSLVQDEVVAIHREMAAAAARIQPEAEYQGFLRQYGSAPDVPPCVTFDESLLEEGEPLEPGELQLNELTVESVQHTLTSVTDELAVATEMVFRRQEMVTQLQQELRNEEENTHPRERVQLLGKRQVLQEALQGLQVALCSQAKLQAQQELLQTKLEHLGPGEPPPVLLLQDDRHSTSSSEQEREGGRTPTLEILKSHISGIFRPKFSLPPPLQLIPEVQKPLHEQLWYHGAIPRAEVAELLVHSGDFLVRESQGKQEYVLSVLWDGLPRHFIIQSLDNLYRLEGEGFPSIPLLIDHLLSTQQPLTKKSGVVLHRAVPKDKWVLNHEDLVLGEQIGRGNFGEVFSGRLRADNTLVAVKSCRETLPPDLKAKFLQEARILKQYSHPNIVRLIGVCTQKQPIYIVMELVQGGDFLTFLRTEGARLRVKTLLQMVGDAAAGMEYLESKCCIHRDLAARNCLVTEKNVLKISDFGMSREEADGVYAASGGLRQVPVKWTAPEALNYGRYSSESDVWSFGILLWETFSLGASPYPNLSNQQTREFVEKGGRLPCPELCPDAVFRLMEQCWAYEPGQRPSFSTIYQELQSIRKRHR

Row | inhibition at 1 µM (LIMK1(h)) | inhibition at 1 µM (Fes(h)) | inhibition at 1 µM (CaMKIIδ(h)) | inhibition at 1 µM (MAPKAP-K2(h)) | inhibition at 1 µM (PAK2(h)) | inhibition at 1 µM (JAK3(h)) | inhibition at 1 µM (HIPK1(h)) | inhibition at 1 µM (CaMKIV(h)) | inhibition at 1 µM (CDK2/cyclinA(h)) | inhibition at 1 µM (CDK2/cyclinE(h)) | SMILES
1 | 58% | 80% | 80% | 38% | 18% | 76% | 14% | 4% | 99% | 86% | Nc1n[nH]c2ccc(-c3ccnc4[nH]c(-c5ccccc5)cc34)cc12 [Compound 4]
2 | 21% | 50% | 61% | -3% | 1% | 30% | -11% | 6% | 61% | 37% | Nc1n[nH]c2ccc(-c3ccnc4[nH]c(-c5cccc(OCc6ccccc6)c5)cc34)cc12 [Compound 5r [SU1261]]
3 | 15% | -31% | 37% | 1% | 0% | 18% | 5% | -9% | 37% | 29% | Nc1n[nH]c2ccc(-c3ccnc4[nH]c(-c5ccnc(OCc6ccccc6)c5)cc34)cc12 [Compound 6g [SU1349]]
